Source: US20100167396A1, “Application of Anti-Apoptotic Gene Expression in Mammalian Cells for Perfusion Culture” (BAYER HEALTHCARE LLC, priority 2006, published 2010)

Tests used:
[1] = system: E1B-19K #6 and Aven-E1B-19K #22 BHK-FVIII cell lines; test: Thapsigargin-induced caspase-3 activation, engineered cell lines; type: cell-based, hamster; conditions: 24 hours after 2 μM thapsigargin treatment, anti-apoptosis engineered cell lines
Method: (§1) Cells were seeded at a density of 5×10^6 cells/mL in shake flasks and cultured in an incubator maintained at 37° C. and 5% CO2. The culture was examined every 24 hours for viability, caspase-3 activation, Annexin-V binding assay, and nutrient measurements. Cell count was performed by trypan blue exclusion assay using a Cedex cell counting device (Innovatis, Bielefeld, Germany). Caspase-3 activation was detected using a Guava PCA system (Guava Technologies, Hayward, Calif.). Cells were washed with cold PBS, fixed with Cytofix/Cytoperm solution (BD Pharmingen, San Diego, Calif.), and then stained with PE-conjugated monoclonal active caspase-3 antibody (BD Pharmingen) before analyzing with the Guava system. For the Annexin-V binding assay, cells were collected and incubated using a Guava Nexin kit and analyzed on the Guava PCA system according to manufacturer's instructions (Guava Technologies). Levels of glutamine, glutamate, glucose, and lactate were measured by the YSI analyzer (YSI Life Sciences, Yellow Springs, Ohio).
(§2) The engineered cell lines Aven-E1B-19K #22 and E1B-19K #6, in addition to the blank vector and the parental cell lines were treated with thapsigargin in shake flask culture. […] To examine apoptosis induction, caspase-3 activation was evaluated 24 hours after thapsigargin treatment.

[2] = system: blank vector and parental BHK-FVIII cell lines; test: Thapsigargin-induced caspase-3 activation, control cell lines; type: cell-based, hamster; conditions: 24 hours after 2 μM thapsigargin treatment
Method: as §1, §2

`C/C=C(/C)C(=O)O[C@H]1C(C)=C2[C@H]([C@@H]1OC(=O)CCCCCCC)[C@@](C)(OC(C)=O)C[C@H](OC(=O)CCC)[C@@]1(O)[C@H]2OC(=O)[C@@]1(C)O` [thapsigargin] was tested, and the “percentage of caspase-3 activated cells” value [1] was “less than 5%” and the “percentage of caspase-3 activated cells” value [2] was “Approximately 20%”.
